Reference: patent US12624368B2 (priority 2018, dated 2026)
In brackets after ≈: the same amount, converted by molar mass. Entries after “also recorded” stand apart in the source; their conditions may differ. Like-named read-outs stand apart in the source and are kept apart here. Where a SMILES comes first, the peptide text is derived from it.

Experiments:
in vitro [1] = conditions: dog
in vitro [2] = conditions: human
[3] = system: endosomal acidification in MDCK cells; assay type: cell-based, canine
A(H1N1)pdm09 virus [4] = assay type: cell-based, influenza A virus A(H1N1)pdm09
293T cells = assay type: cell-based, human
mouse lungs = conditions: in vivo
A(H7N7) virus [5] = system: A(H7N7) virus; set-up: species or system BALB/c mice; conditions: mouse, in vivo
[6] = system: HA mediated membrane fusion; conditions: pH 5
A(H7N7) virus [7] = conditions: 1 h
A(H1N1)pdm09 virus [8] = conditions: 1 h
endosomal acidification = conditions: cited from earlier work
A(H1N1)pdm09 virus [9] = system: A(H1N1)pdm09 virus; set-up: species or system BALB/c mice; conditions: in vivo
[10] = system: A(H7N7) and A(H1N1)pdm09 virus; assay type: cell-based, influenza A virus; conditions: 0-8,000 nM
[11] = MDCK cells, P1 25.0 μg ml^−1, TAT-P1 3.1 μg ml^−1, bafilomycin A1 100.0 nM, PA1 25.0 μg ml^−1

CC[C@H](C)[C@H](NC(=O)[C@H](CCCNC(=N)N)NC(=O)[C@H](CS)NC(=O)[C@H](CS)NC(=O)[C@H](CCCNC(=N)N)NC(=O)[C@@H](NC(=O)[C@H](CCCNC(=N)N)NC(=O)[C@H](Cc1ccccc1)NC(=O)[C@H](CCCNC(=N)N)NC(=O)CNC(=O)[C@H](CS)NC(=O)[C@H](CC(N)=O)NC(=O)[C@H](CCCNC(=N)N)NC(=O)[C@H](CCCCN)NC(=O)[C@H](CCCNC(=N)N)NC(=O)[C@H](Cc1ccccc1)NC(=O)[C@H](C)NC(=O)[C@H](CCCNC(=N)N)NC(=O)[C@@H]1CCCN1C(=O)[C@H](CS)NC(=O)[C@@H]1CCCN1C(=O)[C@H](CCCNC(=N)N)NC(=O)[C@H](Cc1c[nH]c2ccccc12)NC(=O)[C@H](CS)NC(=O)[C@H](CCCNC(=N)N)NC(=O)[C@H](CCCNC(=N)N)NC(=O)[C@H](CCCNC(=N)N)NC(=O)[C@H](CCC(N)=O)NC(=O)[C@H](CCCNC(=N)N)NC(=O)[C@H](CCCNC(=N)N)NC(=O)[C@H](CCCCN)NC(=O)[C@H](CCCCN)NC(=O)[C@H](CCCNC(=N)N)NC(=O)CNC(=O)[C@@H](N)Cc1ccc(O)cc1)[C@@H](C)CC)C(=O)N[C@@H](CCCNC(=N)N)C(=O)O [TAT-P2] (H-YGRKKRRQRRRCWRPCPRAFRKRNCGRFRIRCCRIR-OH; N-terminus and C-terminus assumed)
CC50 (in vitro [1]): 160 µg/mL (≈ 33.7 µM) | CC50 (in vitro [2]): 154 µg/mL (≈ 32.4 µM)

CC[C@H](C)[C@H](NC(=O)[C@H](CCCNC(=N)N)NC(=O)[C@H](CS)NC(=O)[C@H](CCCNC(=N)N)NC(=O)[C@@H](NC(=O)[C@H](CCCNC(=N)N)NC(=O)[C@H](Cc1ccccc1)NC(=O)[C@H](CCCNC(=N)N)NC(=O)CNC(=O)[C@H](CS)NC(=O)[C@H](CC(C)C)NC(=O)[C@H](CCC(N)=O)NC(=O)[C@H](CCCNC(=N)N)NC(=O)[C@H](Cc1ccccc1)NC(=O)[C@H](CO)NC(=O)[C@@H]1CCCN1C(=O)[C@H](CS)NC(=O)[C@@H]1CCCN1C(=O)[C@H](CCCNC(=N)N)NC(=O)[C@H](Cc1c[nH]c2ccccc12)NC(=O)[C@H](CS)NC(=O)[C@H](CCCNC(=N)N)NC(=O)[C@H](CCCNC(=N)N)NC(=O)[C@H](CCCNC(=N)N)NC(=O)[C@H](CCC(N)=O)NC(=O)[C@H](CCCNC(=N)N)NC(=O)[C@H](CCCNC(=N)N)NC(=O)[C@H](CCCCN)NC(=O)[C@H](CCCCN)NC(=O)[C@H](CCCNC(=N)N)NC(=O)CNC(=O)[C@@H](N)Cc1ccc(O)cc1)[C@@H](C)CC)C(=O)N[C@@H](CCCNC(=N)N)C(=O)O [TAT-P3] (H-YGRKKRRQRRRCWRPCPSFRQLCGRFRIRCRIR-OH; N-terminus and C-terminus assumed)
CC50 (in vitro [1]): 207 µg/mL (≈ 47.6 µM) | CC50 (in vitro [2]): 205 µg/mL (≈ 47.1 µM)

Bafilomycin A1 [reference compound]
endosomal acidification [3, 11]: prevented endosomal acidification | viral RNP release into the nuclei (A(H1N1)pdm09 virus [4]): blocked viral RNP release into the nuclei | effect of added agent on transfection efficiency of TAT-P1/pLuc (293T cells): increased

NGAICWGPCPTAFRQIG NCGHFKVRCCKIRDED (SEQ ID NO: 9) [PA1, reference compound]
endosomal acidification [3]: did not prevent endosomal acidification | effect of added agent on transfection efficiency of TAT-P1/pLuc (293T cells): did not improve the transfection efficiency | effect of added peptide on transfection efficiency of TAT-P1/pLuc in mouse lungs (mouse lungs): did not improve the transfection efficiency

CC[C@H](C)[C@H](NC(=O)[C@H](CCC(N)=O)NC(=O)[C@H](CCCNC(=N)N)NC(=O)[C@H](Cc1ccccc1)NC(=O)[C@H](C)NC(=O)[C@@H](NC(=O)[C@@H]1CCCN1C(=O)[C@H](CS)NC(=O)[C@@H]1CCCN1C(=O)CNC(=O)[C@H](Cc1c[nH]c2ccccc12)NC(=O)[C@H](CS)NC(=O)[C@H](CCCNC(=N)N)NC(=O)[C@H](CCCNC(=N)N)NC(=O)[C@H](CCCNC(=N)N)NC(=O)[C@H](CCC(N)=O)NC(=O)[C@H](CCCNC(=N)N)NC(=O)[C@H](CCCNC(=N)N)NC(=O)[C@H](CCCCN)NC(=O)[C@H](CCCCN)NC(=O)[C@H](CCCNC(=N)N)NC(=O)CNC(=O)[C@@H](N)Cc1ccc(O)cc1)[C@@H](C)O)C(=O)NCC(=O)N[C@@H](CC(N)=O)C(=O)N[C@@H](CS)C(=O)NCC(=O)N[C@@H](CCCNC(=N)N)C(=O)N[C@@H](Cc1ccccc1)C(=O)N[C@@H](CCCNC(=N)N)C(=O)N[C@H](C(=O)N[C@@H](CCCNC(=N)N)C(=O)N[C@@H](CS)C(=O)N[C@@H](CS)C(=O)N[C@@H](CCCNC(=N)N)C(=O)N[C@H](C(=O)N[C@@H](CCCNC(=N)N)C(=O)O)[C@@H](C)CC)C(C)C [TAT-P1] (H-YGRKKRRQRRRCWGPCPTAFRQIGNCGRFRVRCCRIR-OH)
survival (A(H7N7) virus [5]): 30% | endosomal acidification [3, 11]: prevented endosomal acidification | viral RNP release into the nuclei (A(H1N1)pdm09 virus [4]): blocked viral RNP release into the nuclei | HA-mediated membrane fusion [6]: did not inhibit HA-mediated membrane fusion | viral replication in 293T cells (viral titers by plaque assay) (H7N7 virus): could significantly inhibit viral replication | CC50 (in vitro [1]): 300 µg/mL (≈ 65.2 µM) | CC50 (in vitro [2]): 226 µg/mL (≈ 49.1 µM)

N=C(N)NCCC[C@H](NC(=O)[C@H](CCCNC(=N)N)NC(=O)[C@H](CCCNC(=N)N)NC(=O)[C@H](CCC(N)=O)NC(=O)[C@H](CCCNC(=N)N)NC(=O)[C@H](CCCNC(=N)N)NC(=O)[C@H](CCCCN)NC(=O)[C@H](CCCCN)NC(=O)[C@H](CCCNC(=N)N)NC(=O)CNC(=O)[C@@H](N)Cc1ccc(O)cc1)C(=O)O [TAT, YGRKKRRQRRR (SEQ ID NO: 7), reference compound]
IC50 (H7N7) (A(H7N7) virus [7]): >50.0 µg/mL | IC50 (H1N1) (A(H1N1)pdm09 virus [8]): >50.0 µg/mL | CC50 (in vitro [1]): > 400 µg/mL | CC50 (in vitro [2]): > 400 µg/mL

CCN(CC)CCCC(C)Nc1ccnc2cc(Cl)ccc12 (stereo not drawn) [chloroquine]
effective concentrations for inhibiting endosomal acidification (endosomal acidification): ~100 µM

CC[C@H](C)[C@H](NC(=O)[C@H](CCC(N)=O)NC(=O)[C@H](CCCNC(=N)N)NC(=O)[C@H](Cc1ccccc1)NC(=O)[C@H](C)NC(=O)[C@@H](NC(=O)[C@@H]1CCCN1C(=O)[C@H](CS)NC(=O)[C@@H]1CCCN1C(=O)CNC(=O)[C@H](Cc1c[nH]c2ccccc12)NC(=O)[C@@H](N)CS)[C@@H](C)O)C(=O)NCC(=O)N[C@@H](CC(N)=O)C(=O)N[C@@H](CS)C(=O)NCC(=O)N[C@@H](CCCNC(=N)N)C(=O)N[C@@H](Cc1ccccc1)C(=O)N[C@@H](CCCNC(=N)N)C(=O)N[C@H](C(=O)N[C@@H](CCCNC(=N)N)C(=O)N[C@@H](CS)C(=O)N[C@@H](CS)C(=O)N[C@@H](CCCNC(=N)N)C(=O)N[C@H](C(=O)N[C@@H](CCCNC(=N)N)C(=O)O)[C@@H](C)CC)C(C)C [P1] (H-CWGPCPTAFRQIGNCGRFRVRCCRIR-OH)
endosomal acidification [3]: prevented endosomal acidification | viral RNP release into the nuclei (A(H1N1)pdm09 virus [4]): blocked viral RNP release into the nuclei | IC50 (H7N7) (A(H7N7) virus [7]): 1.56 µg/mL (≈ 0.51 µM) | HA-mediated membrane fusion [6]: did not inhibit HA-mediated membrane fusion | viral replication in 293T cells (viral titers by plaque assay) (H7N7 virus): could significantly inhibit viral replication | CC50 (in vitro [1]): > 400 µg/mL | CC50 (in vitro [2]): > 400 µg/mL

CC(=O)N[C@H]1[C@H]([C@H](O)[C@H](O)CO)OC(C(=O)O)=C[C@@H]1N=C(N)N [zanamivir]
body weight loss (A(H7N7) virus [5]): significantly less body weight loss | survival (A(H7N7) virus [5]): 40% | viral titers in mouse lungs (A(H1N1)pdm09 virus [9]): significantly reduced | IL-6 expression in mice (A(H1N1)pdm09 virus [9]; mouse): significantly reduced | body weight loss (A(H1N1)pdm09 virus [9]; mouse): significantly reduced | survival (A(H1N1)pdm09 virus [9]; mouse): 90% | susceptibility of A(H7N7) virus to zanamivir compared with A(H1N1)pdm09 virus [10]: reduced susceptibility; also recorded: reduced sensitivity of A(H7N7) virus to zanamivir
